# Results published in US7220822B2, “CD28 mimetics for blocking T cell mediated immune reactions” (The Ohio State University, priority 2000, dated 2007).
# Square brackets hold non-standard residues; d marks the D form. Peptide text beside a SMILES is read from it.
# Assays:
# CD80-Ig = biological target: T1, CD80-Ig (Homo sapiens, UniProt P33681); test: Direct kinetic analysis of CD28 peptide binding to immobilized CD80-Ig by surface plasmon resonance (BIACORE)
# T1 construct: extracellular domain of CD80 fused with the constant region of mouse IgG1 heavy chain
# Protocol: Binding experiments were performed by surface plasmon resonance (SPR) on an instrument sold under the trademark BIACORE™ from Pharmacia Biosensor (Uppasala, Sweden).
# CD80-Ig (extracellular domain of CD80 fused with the constant region of mouse IgG1 heavy chain) at 35 μg/ml in 10 mM sodium acetate buffer, pH 4.2, was coupled to a research grade CM 5 sensor chip using a standard amine coupling procedure with the following modifications (38). To reduce the immobilization level of the ligand, the surface was activated for 3 (instead of 7) minutes with N-hydroxysuccinamide and […]. […] Following coupling, noncovalently bound ligand was removed by washing twice with 5 mM NaOH.
# The analytes were also injected at the same concentration and injection times over an empty flow cell with nothing immobilized.
# Data analysis was performed with BIAEVALUATION™ software version 2.1(Pharmacia Biosensor AB). […] Prior to kinetic analysis, data were adjusted to zero baseline level by subtracting the background responses obtained by injection of the analytes through a control flow cell with no ligand immobilized. First, the dissociation rate constant, kd, (units: s^−1) was determined, by fitting experimental data from the buffer flow part of the sensogram to the equation R(t)=R1*e^−kd*(t^0^−t^1^) (1) where t0 is the injection time, R1 is the response level at the start of dissociation time t1 and kd is the dissociation rate constant.
# The kd value obtained was used as a constant during the analysis of the injection phase data. Binding data above the noise level was selected by converting the sensogram to a plot of the logarithm of the binding rate vs time (dR/dt vs. time). The ka was determined by nonlinear curve fitting of the following equation R(t)=Req*{1−e^−(k^a^*C+k^d^)*(t) (2) where R(t) is the response at time t, Req is the steady state response level, ka is the association rate constant (units: M^−1s^−1), kd is the dissociation rate constant and C is the concentration of the injected peptide analyte. An offset was added to account for the refractive index differences between the analyte and the running buffer.
# After analyzing sensograms obtained from injections of increasing concentrations of peptide analytes or CD28-Ig, the experimental data was analyzed using the BIAsimulation software 2.1. A plot of the logarithm of (dR/dt) against time was calculated from the sensograms, and then the slopes at different concentrations were plotted against the concentrations of the peptide analyte. Different angles obtained of the linear lines represent the variation of affinities, which gives the association rate constant (ka) from the equation ln dR/dt=ln(kaCR max)−KaC+kd)t (4) where dR/dt is the rate of change of the SPR signal, C is the concentration of the analyte, Rmax is the maximum analyte binding capacity in RU and R is the SPR signal in RU at time t. The dissociation rate constant is obtained from the equation Kd=kd/ka (5)
# [1] = tested on: CD4+ LNC from Vα4/Vβ8.2 TCR transgenic mice; type: cell-based, mouse; conditions: CD4+ LNC and spleen cells, NAc 1-11 10 μg/ml, all concentrations used
# Protocol: The in vitro effect of varying concentration of the CD 28 peptide mimetics on CD4+ lymph node cells and spleen cells from transgenic mice bearing the Vα 4 Vβ8.2 TCR specific for MBP Ac 1-11 was determined.
# CD4+ T cells were purified from pooled peripheral lymph nodes (inguinal, axillary, brachial, cervical, popliteal), and mesenteric lymph nodes and spleen of 6–8 wk old Vα4/Vβ8.2 TCR transgenic mice by positive selection. Single cell suspensions were prepared by lympholyte M gradient, washed, counted and incubated with magnetic bead conjugated anti-mouse CD4 (L3T4) (Miltenyi Biotech Corporation) followed by positive selection using magnetic selection columns. Purity of the CD4^+ cells was greater than 90% as assessed by staining with FITC labeled anti-mouseVβ8.2 mAb (Pharmingen). During the selection process, T cells maintain a naïve phenotype with no evidence for T cell activation as measured by proliferation in culture. Purified CD4+ T-cells (5×10^4 cells/well) were cultured together with wild type splenocytes from B10.PL mice as APC's (10^5 cells/well) in RPMI 1640 containing 10% FCS, 25 mM HEPES, 2 mM L-glutamine, 50 U/ml penicillin, 50 μg/ml streptomycin, and 5×10–5 M 2-ME in round-bottom 96-well plates and MBP (40 μg/ml) or MBP NAc1-11 (10 μg/ml) or media only in the presence or absence of synthetic CD28 peptide analogues at different concentrations in triplicate wells for 72 h, including a final 18-h pulse with [^3H] thymidine. Cultures were harvested onto glass-fiber mats using a Skatron harvester (Skatron, Sterling, Va.) and were counted by liquid scintillation on LKB Betaplate (LKB, Rockville, Md.). The means of the triplicate were determined and the results are expressed as delta cpm (mean counts per minute of cultures with Ag-mean counts per minute of cultures with medium alone)±SD.
# B10.PL mice with EAE = test: EAE in B10.PL mice immunized with GP-MBP in CFA, clinical score; type: in vivo, mouse; conditions: for mean maximal clinical score: single i.v. 500 μg on day 14 post-immunization (established EAE); for maximum disease incidence / maximum mean cumulative score per day: single i.v. 500 μg on the day of immunization
# Protocol: Female B10.PL mice (6–8 wk old) were obtained from The Jackson laboratory (Bar Harbor, Me.) and housed at the Ohio State University, (Columbus, Ohio).
# Mice were injected subcutaneously over four sites on the flank with an emulsion containing 200 μg of guinea-pig-MBP in CFA containing 200 μg heat killed Mycobacterium tuberculosis, Jamaica strain. Pertussis toxin (List Biological, Campbell, Calif.) at 150 ng in 0.2 ml of PBS was given intraperitoneally at the time of immunization and 48 hours later. Animals were observed daily for clinical signs and scored as follows: 1, limp tail or waddling gait with tail tonicity; 2, waddling gait with limp tail (ataxia); 2.5 ataxia with partial paralysis of one limb, 3, partial hind-limb paralysis, 3.5 full paralysis of one limb with partial paralysis of the second limb, 4, full paralysis of two limbs, 4.5 moribund and 5, death. All mice immunized with MBP (200 μg) in CFA developed clinical disease varying between ataxia and complete hind limb paralysis by day 14 post-immunization. They were then distributed randomly into six groups with mean clinical score of each group approximately the same.
# Groups of mice were left untreated or injected intravenously with 500 μg of EL CD28 or RI CD28 peptide mimetics, or LCD28, RLCD28 and DCD28 peptides. The mean clinical score of untreated mice continued to increase reaching a maximum of 3.4 on day 20. Similarly the disease continued to progress in mice treated with LCD28, RLCD28 and DCD28, reaching mean maximal clinical score of 3.8 (day 18), 3.4 (day 16 ) and 3.7 (day 16) respectively.
# The biological activity of synthetic CD28 peptide analogues during antigen priming in vivo in EAE was then shown. B10.PL mice immunized with GP-MBP (200 μg) in CFA were either left untreated or injected intravenously 500 μg of EL CD28 or RI CD28 peptide mimetics or LCD28, RLCD28 and DCD28 peptides on the day of immunization. The vehicle treated mice and mice treated with: LCD28, RL CD28 and D CD28 peptide had maximum disease incidence of 100%, 100%, 91.5% and 91.5% and maximum mean cumulative score per day of 1.9, 1.8, 1.7 and 2 respectively. […] The effect of RI CD28 peptide injection lasted for the duration of observation (37 days) in one experiment.
# [2] = tested on: lymph node cells of MBP-primed mice; test: IL-2 ELISPOT of draining lymph node cells from peptide-treated MBP-immunized mice; type: in vivo, mouse; conditions: mice treated on day 0 of immunization, ELISPOT on restimulation
# Protocol: Ninety-six well unifilter plates (Polyfiltronics, Rockland, Md.) were coated overnight at 4° C. with rat anti-mouse IL-2 (Clone JES6-1A12) (Pharmingen, Calif.) at 4 μg/ml. The plates were then washed 4× with sterile PBS and blocked with 1% BSA in DMEM for 2 h at room temperature. Subsequently, isolated single cell suspensions of CD4+ LNC (5×10^6 cells/ml) and splenocytes (10×10^6 cells/ml) were added with the antigens and CD28 peptides under the conditions as specified for the proliferation assays. After 24 h of culture in the incubator, the cells were removed by washing 3× with PBS and 4× with PBS containing Tween (1:2000) (PBST). Then biotinylated anti mouse-IL-2 (Clone JES6-5H4) (Pharmingen, Calif.) 2 μg/ml was added and incubated at 4° C. overnight. After washing 3× with PBST and 3× with PBS, goat anti-biotin antibody conjugated to alkaline phosphatase (Vector Laboratories Inc, Burlingame, Calif.) diluted to 1:1000 in PBST containing 1% BSA was added and incubated for 2 h at room temperature. The spots were visualized by adding BCIP/NBT phosphatase substrate (Kirkeguard & Perry Laboratories, Gaithesburg, Md.). Image analysis of ELISA spot assays was performed on a Series 1 Immunospot Image Analyzer (Autoimmun Diagnostika (US) Inc.) customized for analyzing ELISA spots to meet objective criteria for size, chromatic density, shape and color.
# MBP reactive T cells that induce EAE are known to display a Th1 phenotype secreting the proinflammatory cytokines IL-2, […] and TNF-β (36. Kay, B. K., M. P. Williamson, and M. Sudol. 2000. Faseb J 14, no. 2:231). ELISPOT assay was used to assess in vitro cytokine production by draining lymph node cells and splenocytes upon restimulation from in vivo MBP-primed T cells. Mice were treated as described in Example 3, on day 0 of immunization.
# T1 sequence (P33681 35-242 limits assumed, other chains not shown): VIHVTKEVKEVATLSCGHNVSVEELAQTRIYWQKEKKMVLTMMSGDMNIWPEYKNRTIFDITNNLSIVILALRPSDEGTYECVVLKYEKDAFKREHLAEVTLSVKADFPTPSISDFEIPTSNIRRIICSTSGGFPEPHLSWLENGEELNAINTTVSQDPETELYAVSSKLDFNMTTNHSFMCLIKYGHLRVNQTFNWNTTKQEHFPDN
Molecule,maximum response units obtained for binding to CD80-Ig (CD80-Ig; SPR direct binding) [RU],proliferative response / inhibition of T cell proliferation (in words) [1],mean maximal clinical score (B10.PL mice with EAE),maximum disease incidence (B10.PL mice with EAE) [%],maximum mean cumulative score per day (B10.PL mice with EAE),frequency of IL-2 secreting lymph node cells [2],binding to CD80-Ig (in words) (CD80-Ig; data not shown)
"CC[C@H](C)[C@H](NC(=O)[C@@H](NC(=O)CNC(=O)[C@H](CC(N)=O)NC(=O)[C@H](CO)NC(=O)[C@H](CCCNC(=N)N)NC(=O)[C@H](CCC(=O)O)NC(=O)[C@H](CC(N)=O)NC(=O)[C@H](CC(=O)O)NC(=O)[C@H](CC(C)C)NC(=O)[C@H](Cc1ccc(O)cc1)NC(=O)[C@@H]1CCCN1C(=O)[C@@H]1CCCN1C(=O)[C@@H]1CCCN1C(=O)[C@H](Cc1ccc(O)cc1)NC(=O)[C@H](CCSC)NC(=O)[C@H](Cc1ccccc1)NC(=O)[C@H](CCC(=O)O)NC(=O)[C@@H](NC(=O)[C@@H](N)CCCCN)[C@@H](C)CC)[C@@H](C)O)C(=O)O [L CD28, NH2KIEFMYPPPYLDNERSNGTICOOH] (H-KIEFMYPPPYLDNERSNGTI-OH)",478,significantly less,3.8,100,1.8,,
"CH3COD[KIEFMYPPPYLDNERSNGTI]DCONH2 (Ac-[dK][dI][dE][dF][dM][dY][dP][dP][dP][dY][dL][dD][dN][dE][dR][dS][dN]G[dT][dI]-NH2) [D CD28, D-peptide (Control), reference compound]",,did not show inhibition,3.7,91.5,2,2675+/−14.2,
"CH3COL[ITGNSRENDLYPPPYMFEIK]LCONH2 (Ac-ITGNSRENDLYPPPYMFEIK-NH2) [RL CD28, Reverse-L-peptide (Control), reference compound]",,did not show inhibition,3.4,91.5,1.7,3386+/−23.3,
"MYPPPY (listed as Homo sapiens) [hexapeptide, reference compound]",,did not show inhibition,,,,,did not bind
